target: human ACC2 (Homo sapiens (Human), UniProt O00763); assay: ACC2 assay, spectrophotometric 384 well assay (NADH-linked, coupled lactate dehydrogenase/pyruvate kinase reaction); format: biochemical; conditions: hACC2 construct lacking the 128 N-terminal amino acids; 25° C., 340 nm over 15 minutes
Procedure, shortened: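 N-terminally truncated human ACC2 (lacking 128 residues) expressed in insect cells; coupled PK/LDH read-out of ADP as NADH loss at 340 nm, 15 min, 25 °C. Tris pH 7.5 with citrate and KHCO3; 200 μM acetyl-CoA, 500 μM ATP, 1% DMSO.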

Sequence of human ACC2 (O00763 129-2458): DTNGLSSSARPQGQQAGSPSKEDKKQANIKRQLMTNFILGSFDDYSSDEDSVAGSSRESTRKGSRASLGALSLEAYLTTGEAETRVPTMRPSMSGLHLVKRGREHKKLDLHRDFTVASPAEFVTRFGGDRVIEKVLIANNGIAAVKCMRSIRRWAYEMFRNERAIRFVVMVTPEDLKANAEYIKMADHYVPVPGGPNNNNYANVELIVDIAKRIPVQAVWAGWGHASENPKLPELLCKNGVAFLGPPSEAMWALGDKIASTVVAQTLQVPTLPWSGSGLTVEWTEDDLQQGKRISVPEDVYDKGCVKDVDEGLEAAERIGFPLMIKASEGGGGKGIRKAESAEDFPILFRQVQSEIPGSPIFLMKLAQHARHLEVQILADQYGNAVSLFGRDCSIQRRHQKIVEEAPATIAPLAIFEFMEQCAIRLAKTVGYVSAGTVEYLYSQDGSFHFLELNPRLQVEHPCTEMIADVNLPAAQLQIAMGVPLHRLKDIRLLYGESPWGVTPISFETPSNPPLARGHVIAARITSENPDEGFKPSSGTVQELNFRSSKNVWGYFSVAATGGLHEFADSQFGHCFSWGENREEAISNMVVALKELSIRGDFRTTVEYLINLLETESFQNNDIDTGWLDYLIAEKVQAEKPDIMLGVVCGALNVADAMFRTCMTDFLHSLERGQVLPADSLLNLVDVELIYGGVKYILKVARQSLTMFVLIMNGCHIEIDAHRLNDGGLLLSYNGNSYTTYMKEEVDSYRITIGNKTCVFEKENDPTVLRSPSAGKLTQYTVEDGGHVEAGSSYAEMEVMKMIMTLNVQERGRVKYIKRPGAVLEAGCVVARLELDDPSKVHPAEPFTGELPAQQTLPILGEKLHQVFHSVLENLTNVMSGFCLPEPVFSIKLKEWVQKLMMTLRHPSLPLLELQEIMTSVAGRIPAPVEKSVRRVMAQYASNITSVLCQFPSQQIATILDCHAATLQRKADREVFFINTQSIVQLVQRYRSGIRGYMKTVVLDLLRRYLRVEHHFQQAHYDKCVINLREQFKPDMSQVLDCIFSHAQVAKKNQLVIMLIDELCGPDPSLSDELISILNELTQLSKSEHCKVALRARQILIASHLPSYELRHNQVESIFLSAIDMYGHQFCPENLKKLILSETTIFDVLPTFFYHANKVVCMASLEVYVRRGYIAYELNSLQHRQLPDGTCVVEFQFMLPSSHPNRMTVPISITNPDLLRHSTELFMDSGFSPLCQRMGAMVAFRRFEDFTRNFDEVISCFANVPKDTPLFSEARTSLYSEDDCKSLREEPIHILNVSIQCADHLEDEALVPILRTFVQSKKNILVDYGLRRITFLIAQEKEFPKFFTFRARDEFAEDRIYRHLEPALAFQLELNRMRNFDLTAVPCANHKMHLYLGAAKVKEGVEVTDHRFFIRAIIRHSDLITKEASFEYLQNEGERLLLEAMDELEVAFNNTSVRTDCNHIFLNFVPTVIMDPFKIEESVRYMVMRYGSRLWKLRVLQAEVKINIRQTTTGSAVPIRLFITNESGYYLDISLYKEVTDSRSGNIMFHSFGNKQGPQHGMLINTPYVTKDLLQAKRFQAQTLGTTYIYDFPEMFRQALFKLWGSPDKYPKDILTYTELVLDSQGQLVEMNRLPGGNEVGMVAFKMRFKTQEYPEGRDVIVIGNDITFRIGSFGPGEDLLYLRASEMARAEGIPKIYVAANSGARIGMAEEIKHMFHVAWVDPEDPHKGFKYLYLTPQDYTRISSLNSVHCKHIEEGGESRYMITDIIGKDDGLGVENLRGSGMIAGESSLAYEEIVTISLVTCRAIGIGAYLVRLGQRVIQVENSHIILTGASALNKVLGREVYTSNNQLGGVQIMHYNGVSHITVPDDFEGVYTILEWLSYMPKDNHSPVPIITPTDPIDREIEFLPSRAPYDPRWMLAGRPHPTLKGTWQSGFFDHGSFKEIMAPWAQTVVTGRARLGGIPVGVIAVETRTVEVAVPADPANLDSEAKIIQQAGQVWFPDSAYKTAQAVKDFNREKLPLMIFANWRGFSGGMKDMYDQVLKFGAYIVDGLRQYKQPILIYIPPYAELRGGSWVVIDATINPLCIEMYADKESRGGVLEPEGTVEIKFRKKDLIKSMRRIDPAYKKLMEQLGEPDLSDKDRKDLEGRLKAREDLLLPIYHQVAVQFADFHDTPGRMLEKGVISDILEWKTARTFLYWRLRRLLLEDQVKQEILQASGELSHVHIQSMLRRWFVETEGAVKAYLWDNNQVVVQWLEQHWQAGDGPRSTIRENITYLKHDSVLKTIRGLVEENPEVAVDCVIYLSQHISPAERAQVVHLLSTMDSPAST

Row | SMILES | IC50 [nM]
1 | CC(=O)NC(C)c1ccc(C#Cc2ccc(OC3CC3)cc2)cc1 (stereo not drawn) [Example 2.55] | 70
2 | CCCOc1ccc(C#Cc2ccc(C(C)(C)CNC(C)=O)cc2)nc1 [Example 23.14] | 650
3 | CC(=O)N[C@@H](C)c1ccc(C#Cc2cnc(OC3CCC3)nc2)cc1 [Example 12.62] | 240
4 | COC(=O)NC(C)Cc1ccc(C#Cc2cnc(N3CCC3)nc2)cc1 (stereo not drawn) [Example 13.40] | 2200
5 | CCOc1ccc(C#Cc2ccc(CC(C)NC(=O)CC#N)cc2)cc1 (stereo not drawn) [Example 4.9] | 400
6 | CCOc1ccc(C#Cc2ccc(CC(C)NC(=O)c3cc[nH]c3)cc2)cc1 (stereo not drawn) [Example 4.68] | 450
7 | CC(=O)NC(C)Cc1ccc(C#Cc2cnc(N3CCC(C)(C)C3)nc2)cc1 (stereo not drawn) [Example 13.68] | 230
8 | CC(=O)N[C@@H](C)c1ccc(C#Cc2cnc(OCC3CC3)nc2)cc1 [Example 12.59] | 1600
9 | CC(=O)NC(C)Cc1ccc(C#Cc2cnc(N3CC4CCCC4C3)nc2)cc1 (stereo not drawn) [Example 13.18] | 130
10 | CCOc1ccc(C#Cc2ccc([C@H](C)NC(C)=O)cc2)cn1 [Example 14.25] | 1800
11 | CC(=O)NC(C)Cc1ccc(C#Cc2ccnc(N3CCN(S(C)(=O)=O)CC3)n2)cc1 (stereo not drawn) [Example 11.47] | 7400
12 | CC(=O)NC(C)Cc1ccc(C#Cc2cnc(Oc3ccc(F)cc3)nc2)cc1 (stereo not drawn) [Example 12.49] | 230
13 | CCOc1ccc(C#Cc2ccc(CCC(C)NC(C)=O)cc2)cc1 (stereo not drawn) [Example 14.10] | 100
14 | CC(=O)NC(C)Cc1ccc(C#Cc2ccc(-c3ccc(F)cc3)cn2)cc1 (stereo not drawn) [Example 1.16] | 120
15 | CC(=O)NC(C)Cc1ccc(C#Cc2ccnc(N3CCC(CO)C3)n2)cc1 (stereo not drawn) [Example 11.10] | 16700
16 | CCOc1ccc(C#Cc2ccc(CC(C)NC(=O)c3cn[nH]c3)cc2)cc1 (stereo not drawn) [Example 4.69] | 70
17 | COC(=O)NCC(C)c1ccc(C#Cc2cnc(OC3CCC3)nc2)cc1 (stereo not drawn) [Example 33.4] | 520
18 | CC(=O)NC(C)Cc1ccc(C#Cc2ccc(C(=O)N3CCCCC3)cc2)cc1 (stereo not drawn) [Example 8.1, N-(1-(4-((4-(piperidine-1-carbonyl)phenyl)ethynyl)phenyl)propan-2-yl)acetamide] | 500
19 | CC(=O)NC(C)Cc1ccc(C#Cc2ccc(OCC3CCOCC3)cc2)cc1 (stereo not drawn) [Example 9.31] | 550
20 | CC(Cc1ccc(C#Cc2ccc(OC(C)(C)C)cc2)cc1)NC(=O)C1CC1 (stereo not drawn) [Example 2.61] | 2000
21 | CCCOc1ccc(C#Cc2ccc(CC(C)(C)NC(C)=O)cc2)cc1 [Example 35.1, N-(1,1-Dimethyl-2-(4-(4-propoxyphenylethynyl)-phenyl)-ethyl)-acetamide] | 70
22 | CC(=O)NC(C)Cc1ccc(C#Cc2cnc(N3CCC4(CCC4)C3)nc2)cc1 (stereo not drawn) [Example 13.71] | 210
23 | CCNc1ncc(C#Cc2ccc([C@H](C)NC(C)=O)cc2)cn1 [Example 13.95] | 2800
24 | CC(Cc1ccc(C#Cc2ccc(Oc3ccccc3)nc2)cc1)NC(=O)C1CC1 (stereo not drawn) [Example 14.43] | 360
25 | CC(=O)NC(C)Cc1ccc(C#Cc2ccc(OCCn3ccnc3)cc2)cc1 (stereo not drawn) [Example 9.37] | 520
26 | COC(=O)NC(C)Cc1ccc(C#Cc2cnc(NCc3cccnc3)nc2)cc1 (stereo not drawn) [Example 13.33] | 1800
27 | CCOc1ccc(C#Cc2ccc(C(C)NC(=O)C(C)OCC(F)(F)F)cc2)cc1 (stereo not drawn) [Example 4.46] | 8500
28 | CC(Cc1ccc(C#Cc2ccc(OC3CCCC3)cc2)cc1)NC(=O)C1CC1 (stereo not drawn) [Example 14.47] | 80

Row | SMILES | IC50 [nM]
29 | CC(=O)NC(C)Cc1ccc(C#Cc2ccnc(N3CCN(C)CC3)n2)cc1 (stereo not drawn) [Example 11.37] | 14300
30 | CCOc1ccc(C#Cc2ccc([C@H](C)NC(C)=O)cc2)cc1 [Example 14.19] | 190
31 | CCOc1ccc(C#Cc2ccc(CC(C)NC(=O)C3CNC(=O)C3)cc2)cc1 (stereo not drawn) [Example 4.32] | 440
32 | C[C@H](NC(=O)C1CC1)c1ccc(C#Cc2cnc(OCCC(F)(F)F)nc2)cc1 [Example 12.63] | 1100
33 | CCC(C)Nc1ncc(C#Cc2ccc(CC(C)NC(=O)OC)cc2)cn1 (stereo not drawn) [Example 13.39] | 640
34 | CCCc1ccc(C#Cc2ccc(CC(C)NC(=O)C3CC3)cc2)cc1 (stereo not drawn) [Example 2.63] | 460
35 | CC(Cc1ccc(C#Cc2ccc(OCC3CC3)cc2)cc1)NC(=O)C1CC1 (stereo not drawn) [Example 14.18] | 140
36 | CCOc1ccc(C#Cc2ccc(C(C)NC(=O)CO)cc2)cc1 (stereo not drawn) [Example 4.48] | 3900
37 | CC(=O)NC(C)Cc1ccc(C#Cc2ccnc(N(C)Cc3ccccc3)n2)cc1 (stereo not drawn) [Example 11.45] | 530
38 | CC(=O)NC(C)Cc1ccc(C#Cc2ccc(OC3CCN(C)C3)cc2)cc1 (stereo not drawn) [Example 9.7] | 1900
39 | CC(=O)NC(C)c1ccc(C#Cc2ccc3c(c2)CCO3)cc1 (stereo not drawn) [Example 2.45] | 250
40 | CC(=O)NC(C)Cc1ccc(C#Cc2ccc(OCCC(C)C)nn2)cc1 (stereo not drawn) [Example 14.21] | 3100
41 | CCCOc1ccc(C#Cc2ccc(C(C)NC(C)=O)cc2)cn1 (stereo not drawn) [Example 2.54] | 1200
42 | CCOc1ccc(C#Cc2ccc(C(C)NC(C)=O)cc2)cn1 (stereo not drawn) [Example 14.2] | 5900
43 | CC(Cc1ccc(C#Cc2ccc(OC3CCC3)cc2)cc1)NC(=O)C1CC1 (stereo not drawn) [Example 14.29] | 680
44 | CCOc1ccc(C#Cc2ccc(CC(C)NC(=O)c3ocnc3C)cc2)cc1 (stereo not drawn) [Example 4.71] | 430
45 | CC(=O)NC(C)Cc1ccc(C#Cc2cccc3ccccc23)cc1 (stereo not drawn) [Example 1.4] | 2000
46 | CCCOc1ccc(C#Cc2ccc(C(C)NC(C)=O)cc2)cc1 (stereo not drawn) [Example 2.49] | 250
47 | CC(=O)NC(C)Cc1ccc(C#Cc2cnc(NC3CCOC3)nc2)cc1 (stereo not drawn) [Example 13.19] | 670
48 | CCOc1ccc(C#Cc2ccc(CC(C)NC(=O)CNC)cc2)cc1 (stereo not drawn) [Example 4.29] | 2700
49 | COC1(C)CCN(c2ncc(C#Cc3ccc(CC(C)NC(C)=O)cc3)cn2)CC1 (stereo not drawn) [Example 13.74] | 1700
50 | CCOc1ccc(C#Cc2ccc(C(C)NC(=O)C3CC3C)cc2)cc1 (stereo not drawn) [Example 4.75] | 15400
51 | CCCOc1ccc(C#Cc2ccc(C(C)(C)CNC(C)=O)cc2)cn1 [Example 2.35] | 130
52 | CC(=O)NC(C)Cc1ccc(C#Cc2ccnc(N3CCCCC3)n2)cc1 (stereo not drawn) [Example 11.38] | 430
53 | CCCC(=O)NC(C)Cc1ccc(C#Cc2ccc(OCC)cc2)cc1 (stereo not drawn) [Example 4.1, N-(1-(4-((4-ethoxyphenyl)ethynyl)phenyl)propan-2-yl)butyramide] | 210
54 | CC(=O)NC(C)Cc1ccc(C#Cc2ccc(C(=O)NCc3ccccc3)cc2)cc1 (stereo not drawn) [Example 1.12] | 2300
55 | CC(=O)NC(C)Cc1ccc(C#Cc2ccnc(N3CCC(C#N)C3)n2)cc1 (stereo not drawn) [Example 11.29] | 4500

Now from value to compound:

Row | IC50 [nM] | SMILES
56 | 4900 | CC(=O)NC(C)Cc1ccc(C#Cc2cccc(OC(F)F)c2)cc1 (stereo not drawn) [Example 1.7]
57 | 930 | CC(=O)NC(C)Cc1ccc(C#Cc2ccc(Oc3cncnc3)nc2)cc1 (stereo not drawn) [Example 2.26]
58 | 2800 | CC(=O)NC(C)Cc1ccc(C#Cc2cccc(C(=O)NCC(C)C)c2)cc1 (stereo not drawn) [Example 8.30]
59 | 1900 | CCOc1cc(C#Cc2ccc(CC(C)NC(C)=O)cc2)ncn1 (stereo not drawn) [17.1]
60 | 10300 | COC(=O)CN(C)c1nccc(C#Cc2ccc(CC(C)NC(C)=O)cc2)n1 (stereo not drawn) [Example 11.48]
61 | 200 | CC(=O)NC(C)Cc1ccc(C#Cc2ccc(OCC3CC3C)cc2)cc1 (stereo not drawn) [Example 9.24]
62 | 810 | CC(=O)NC(C)Cc1ccc(C#Cc2ccc(C)cc2)cc1 (stereo not drawn) [Example 1.2]
63 | 2100 | CC(=O)NC(C)Cc1ccc(C#Cc2cccc(OCc3c[nH]cn3)c2)cc1 (stereo not drawn) [Example 9.15]
64 | 7400 | CC(=O)NC(C)Cc1ccc(C#Cc2ncc(Cl)cn2)cc1 (stereo not drawn) [Example 2.99]
65 | 4500 | COC(=O)c1cc(C#Cc2ccc(CC(C)NC(C)=O)cc2)ccn1 (stereo not drawn) [Example 3.10]
66 | 1700 | CC(=O)NC(C)Cc1ccc(C#Cc2ccc(OCc3nccs3)cc2)cc1 (stereo not drawn) [Example 31.1, N-(1-Methyl-2-(4-(4-(thiazol-2-ylmethoxy)-phenylethynyl)-phenyl)-ethyl)-acetamide]
67 | 1600 | COc1ccc(C#Cc2ccc(CC(C)NC(C)=O)cc2)cc1OC (stereo not drawn) [22.1]
68 | 4400 | CCNC(=O)c1ccc(C#Cc2ccc(CC(C)NC(C)=O)cc2)cc1 (stereo not drawn) [Example 8.17]
69 | 6300 | CCOc1ccc(C#Cc2ccc(CC(C)NC(=O)[C@H](C)OC)cc2)cc1 (stereo partly drawn) [Example 4.50]
70 | 250 | CC(=O)NC(C)Cc1ccc(C#Cc2ccc(OC(C)C)cc2)cc1 (stereo not drawn) [Example 1.29]
71 | 250 | CC(=O)NC(C)Cc1ccc(C#Cc2ccc(OCc3ccoc3)cc2)cc1 (stereo not drawn) [Example 9.26]
72 | 140 | CC(=O)NC(C)Cc1ccc(C#Cc2ccc(C(C)(C)C)cc2)cc1 (stereo not drawn) [25.1]
73 | 2800 | COc1ccc(C#Cc2ccc(CC(C)NC(=O)C3CC3)cc2)cn1 (stereo not drawn) [Example 2.64]
74 | 70 | CCCOc1ccc(C#Cc2ccc(C[C@H](C)NC(C)=O)cc2)cc1 [Example 23.6]
75 | 230 | CC(=O)NC(C)Cc1ccc(C#Cc2cnc(NC(C)C(C)C)nc2)cc1 (stereo not drawn) [Example 13.11]
76 | 1500 | CC(=O)NC(C)Cc1ccc(C#Cc2cccc(C(=O)NC3CCCC3)c2)cc1 (stereo not drawn) [Example 8.26]
77 | 1500 | COc1ncc(C#Cc2ccc(CC(C)NC(C)=O)cc2)c(OC)n1 (stereo not drawn) [Example 2.9]
78 | 130 | CC(=O)NC(C)Cc1ccc(C#Cc2cnc(NC3CC3)nc2)cc1 (stereo not drawn) [Example 13.78]
79 | 1900 | CC(=O)NC(C)Cc1ccc(C#Cc2ccnc(NCC3CC3)n2)cc1 (stereo not drawn) [Example 11.13]
80 | 550 | CC(=O)NC(C)Cc1ccc(C#Cc2cccc(OC(C)C)c2)cc1 (stereo not drawn) [Example 1.27]
81 | 280 | CCOc1ccc(C#Cc2ccc(CCC(C)NC(C)=O)cc2)cn1 (stereo not drawn) [Example 14.53]
82 | 4300 | COc1ccc(C#Cc2ccc(CC(C)NC(C)=O)cc2)nc1 (stereo not drawn) [Example 3.11]
83 | 90 | CC(=O)N[C@@H](C)Cc1ccc(C#Cc2ccc(C(C)(C)C)cc2)cc1 [Example 23.4]
84 | 170 | CC(=O)NC(C)Cc1ccc(C#Cc2cnc(Oc3ccccc3)nc2)cc1 (stereo not drawn) [Example 12.16]

— patent US8835472B2, “Compounds, pharmaceutical compositions and uses thereof” (Boehringer Ingelheim International GmbH, priority 2010, dated 2014)
